# Results published in US20090076172A1, “Prolonged Deactivation” (priority 2004, published 2009).
# Biological target: T1, Der p1 allergen (Dermatophagoides pteronyssinus, UniProt P08176)
# T1 construct: House dust was passed through a number of sieves and the fraction smaller than 53 μm was collected; from tissue; host or cells: house dust (sieved fraction smaller than 53 μm)
# Assay: Der p1 allergen reduction in house dust after vapour exposure in a booth (ELISA)
# Conditions: 0.8 ml β-pinene on 6 ml water vaporised by oil burner, house dust on PTFE tray, vs pre-treatment control
# Excerpt: When using house dust for allergen denaturing tests an inherent difficulty is the variability of the amount of allergen in each small sample, even when taken from the same dust reservoir. The amount of dust in the pre-treatment sample must be accurately estimated in order to determine the extent of any allergen denaturing. In these tests the dust sample was applied to the test exposure surface and then one half of this surface dust was removed to measure the control pre-treatment allergen level of that specific sample. Each control was directly relevant to each sample, which gave the best possible estimate of the level of allergen in the sample before exposure to possible denaturant. All tests employed a glass reinforced plastic booth of size 0.7 m×0.7 m×1.0 m. All tests had 5 or 6 replicates. Average values are stated.
# The following Examples all measure the reduction of the house dust mite Dermatophagoides pteronyssinus allergen—Der p1.
# House dust was passed through a number of sieves and the fraction smaller than 53 μm was collected. 0.025 g of dust was placed in a small sieve to distribute it evenly over the test surface. The test surface was a PTFE (polytetrafluoroethylene—trade mark TEFLON) coated metal tray of size 30 cm×30 cm. The dust was applied to the tray by moving the sieve continuously over the surface while tapping the sieve. One half of the dust was then removed by suction onto an in-line filter and the weight recorded, this was the pre-treatment control. The tray was then placed in the booth. An oil burner containing 0.8 ml of β-pinene floated on 6ml of distilled water was placed in the booth, and the booth was sealed. The oil burner candle was lit and allowed to burn, under the oil/water until all the liquid had been vaporised (approximately 30 minutes). The candle was then smothered. After 24 hours the tray was removed, the dust was collected from it and its weight recorded. The booth was washed with strong detergent between tests.
# The test samples were assayed for the Der p1 allergen using an ELISA (enzyme linked immunosorbent assay) to determine the allergen content. This was then related to the weight of dust that had been present in each sample. All of the samples were multiplied up to compare the amount of allergen expected to be present in a 0.1 g sample of dust. The percentage difference between the control sample and the exposed sample was then obtained. One analysis was carried out on week 0 (24 hours after the tests were completed. Another analysis was carried out after 2 weeks.
# Corresponding tests were carried out and the same ELISA analysis carried out at Week 0 and after 4 weeks.
# T1 sequence (P08176 99-320): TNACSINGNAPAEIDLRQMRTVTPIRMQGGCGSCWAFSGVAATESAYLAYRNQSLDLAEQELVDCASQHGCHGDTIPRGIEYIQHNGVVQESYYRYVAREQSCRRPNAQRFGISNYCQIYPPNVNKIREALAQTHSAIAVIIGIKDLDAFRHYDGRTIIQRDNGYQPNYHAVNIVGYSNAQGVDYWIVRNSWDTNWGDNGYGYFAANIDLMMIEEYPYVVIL
structure (smiles),measurement,setting,value
C=C1CCC2CC1C2(C)C (stereo not drawn) [β-pinene],Der p1 allergen reduction,"corresponding (second) test series, Week 0",Week 0-77.5%
same,Der p1 allergen reduction,"corresponding (second) test series, Week 4 (analysis after 4 weeks)",Week 4-91.6%
same,Der p1 allergen reduction,"first test series, Week 0 (24 hours after the tests were completed)",Week 0-68.0%
same,Der p1 allergen reduction,"first test series, Week 2 (analysis after 2 weeks)",Week 2-66.3%
